Results: US6949533B2, “6,7-Oxygenated steroids and uses related thereto” (Inflazyme Pharmaceuticals Ltd., priority 1996, dated 2005)

Columns and labels:
[1] = test system: passively sensitized rat mast cells (RBL-2H3); assay: antigen-induced release of hexosaminidase from RBL-2H3 cells; assay type: cell-based; conditions: antigen-induced hexosaminidase release
Experimental: (§1) The anti-allergic effects of various polyhydroxylated steroids of the present invention were evaluated by measuring their effect on antigen-induced secretion of hexosaminidase from a passively sensitized rat mast cell line (RBL-2H3) and a murine mast cell line (MC/9). The ability of agents to inhibit the release of mast cell granule contents, e.g., histamine and hexosaminidase, is indicative of anti-allergy and/or anti-asthma activity.
(§2) Hexosaminidase is released from the mast cell granule along with histamine and other mediators during antigen challenge. RBL-2H3 and MC/9 cells were grown in culture and passively sensitized to dinitrophenol (DNP) using anti-human-DNP (IgE). Cells were incubated with each compound (25 μM) for 1 hour at 37° C. and then stimulated with 0.1 mg/ml DNP-HSA (antigen) for 15 min. Aliquots of the supernatant were removed and used to measure the amount of hexosaminidase released during challenge with the antigen. The amount of hexosaminidase present in the supernatant was determined calorimetrically by monitoring the enzymatic metabolism of p-nitrophenyl-N-acetyl-β-D-glucosaminide (p-NAG) over a period of 1 hour at 410 nm. The effect of each compound was determined as a percentage of the antigen-induced response (minus background release) obtained in the presence of DMSO alone, as set forth in Tables 2 and 3. These values were used to determine the degrees of inhibition of antigen-induced hexosaminidase release from the cells.

mouse mast cells (MC/9) = assay: antigen-induced release of hexosaminidase from MC/9 cells; assay type: cell-based
Experimental: as §1, §2

sensitized guinea pigs = assay: allergen-induced changes in lung resistance and compliance in vivo; design: species or system guinea pig; conditions: 5 mg/kg/day for 4 days p.o.
Experimental: Female Cam Hartley guinea pigs (350-400 g) are sensitized to ovalbumin by exposure of the guinea pigs to a nebulized solution of 1% ovalbumin in saline for 15 minutes. After 10-12 days, the animals are found to be acutely sensitized to the allergen (ovalbumin). Animals are treated by oral gavage, under light halothane anesthesia, with 300 μl polyethyleneglycol-200 (PEG) or 5 mg/Kg of test compound in 300 μl of PEG. Animals are treated once daily for 4 days with the final dose administered 2 hours prior to allergen challenge. Alternatively, compounds were delivered by inhalation, using a Hudson nebulizer driven by 6 psi oxygen, providing a single dose of 50 μg/Kg 20 min prior to challenge.
An animal is anaesthetized using ketamine ([…]; i.p.) and xylazine (10 mg/Kg; i.p.) and 1% halothane during the surgical procedure. A tracheostomy is performed and a water-filled esophageal cannula is inserted prior to positioning the animal in a body plethysmograph. The tracheal cannula is attached to a fixed tracheal cannula in the plethysmograph. Cardiac function is monitored using electrocardiography. The animal is paralyzed using pancuronium bromide (0.8 mg/Kg; i.m.) and ventilated with 3 ml tidal breaths using a Harvard small animal ventilator, at a frequency of 60 breaths per minute. Pulmonary resistance and dynamic lung compliance data are obtained from volume, flow and transpulmonary pressure signals using multipoint analysis.
Pulmonary function is continually monitored throughout the experiment and measurements of lung resistance and lung compliance are made at various time-points (e.g., 0, 1, 2, 3, 4, 5, 10, 20 and 30 min) following antigen challenge. Data is collected on a computer-linked physiological measurement system using DIREC Physiological recording software and analyzed using ANADAT software designed for lung mechanics measurements. This software was obtained from RHT-InfoDat Inc., Montreal, Quebec, Canada.
Once baseline resistance and compliance measurements are obtained, the animal is challenged with 6 breaths of saline. After 10 minutes, during which time no alterations in lung function should occur, the animal is challenged with 6 breaths of 2 or 3% ovalbumin in saline (as the antigen stimulus). Saline and antigen are delivered in each breath using a Hudson nebulizer.

NF-κB = NF-κB gel shift binding assay in TPA-stimulated RBL-2H3 cells; assay type: cell-based; conditions: Rattus norvegicus, compound 1 μM, 2 hours preincubation, read-out: Percent Inhibition of Response to TPA (0.1 μM)
guinea pig ileum = assay: antigen-induced contraction of ileum from sensitized guinea pigs; conditions: Cavia porcellus, read-out: Percentage Inhibition, 30 μM compound, n = 3-4
Experimental: The ability of compounds to inhibit allergen-induced contraction of ileum from sensitized animals is indicative of antiallergic activity. Sensitized guinea pig ileum is particularly useful in measuring the immediate allergic response.
The guinea pig ileum has been used to evaluate the ability of compounds to inhibit allergan-induced histamine and mediator release causing smooth muscle contraction. Guinea pigs were sensitized by an intraperitoneal injection of 100 mg ovalbumin and an intramuscular injection of 50 mg ovalbumin on day 0, followed by a second intramuscular injection of 50 mg ovalbumin on day 1. […] Segments of ileum were prepared and suspended, with muscle contractions being measured in the longitudinal plane, in Tyrode's buffer at 37° C. and aerated with 5% CO2 in O2. Tissues were suspended under a resting tension of 2 grams and isometric contractions were measured using force-displacement transducers coupled to a polygraph. Tissues were stimulated with 3 μM histamine 3 times to ensure reproducible contractions were obtained. Tissues were then incubated with each compound (30 μM) or 0.15% dimethylsulphoxide (DMSO) as a control, for 20 min, after which time the tissues were challenged with 100 μg/ml ovalbumin. The magnitude of the contraction induced by OA in the presence of each compound was expressed as a percentage of the contraction obtained to 3 μM histamine. The protective effects of the various compounds on OA-induced contraction of guinea pig ileum from sensitized animals are summarized in Table 4.

## CC[C@H]1CCC2C3C(CC[C@@]21C)[C@@]1(C)CC[C@@H](O)CC1[C@@H](O)[C@@H]3O (some centres unmarked) [Compound 339]
[1]; 25 μM compound, 25 µM
  Percentage Inhibition (mean) RBL-2H3 Cells: 76%
[1]; Rattus norvegicus, RBL-2H3, 25 μM compound, read-out: Percentage Inhibition (mean) RBL-2H3 Cells
  inhibition at 25 µM: 79%
Mouse mast cells (MC/9); 25 μM compound, 25 µM
  Percentage Inhibition (mean) MC/9 cells: 55%
Mouse mast cells (MC/9); Mus musculus, MC9, 25 μM compound, read-out: Percentage Inhibition (mean) MC/9 cells
  inhibition at 25 µM: 67%
Sensitized guinea pigs; 1 min after challenge
  Lung Compliance: 0.172 ± 0.027 ml/cm H2O
  Lung Resistance: 0.326 ± 0.041 cm H2O/ml/sec
Sensitized guinea pigs; 2 min after challenge
  Lung Compliance: 0.088 ± 0.018 ml/cm H2O
  Lung Resistance: 0.522 ± 0.187 cm H2O/ml/sec
Sensitized guinea pigs; 3 min after challenge
  Lung Compliance: 0.060 ± 0.017 ml/cm H2O
  Lung Resistance: 1.102 ± 0.047 cm H2O/ml/sec
Sensitized guinea pigs; 4 min after challenge
  Lung Compliance: 0.050 ± 0.013 ml/cm H2O
  Lung Resistance: 0.996 ± 0.380 cm H2O/ml/sec
Sensitized guinea pigs; 5 min after challenge
  Lung Compliance: 0.051 ± 0.011 ml/cm H2O
  Lung Resistance: 1.014 ± 0.413 cm H2O/ml/sec
Sensitized guinea pigs; 10 min after challenge
  Lung Compliance: 0.084 ± 0.012 ml/cm H2O
  Lung Resistance: 0.440 ± 0.099 cm H2O/ml/sec
Sensitized guinea pigs; 20 min after challenge
  Lung Compliance: 0.123 ± 0.015 ml/cm H2O
  Lung Resistance: 0.296 ± 0.031 cm H2O/ml/sec
Sensitized guinea pigs; 30 min after challenge
  Lung Compliance: 0.150 ± 0.012 ml/cm H2O
  Lung Resistance: 0.291 ± 0.037 cm H2O/ml/sec
Sensitized guinea pigs; Baseline
  Lung Compliance: 0.463 ± 0.026 ml/cm H2O
  Lung Resistance: 0.249 ± 0.017 cm H2O/ml/sec
Sensitized guinea pigs; OA/10 s
  Lung Compliance: 0.442 ± 0.025 ml/cm H2O
  Lung Resistance: 0.239 ± 0.013 cm H2O/ml/sec
NF-κB
  inhibition at 1 µM: 65%
Guinea pig ileum
  inhibition at 30 µM: 40.6%
